Source: PubChem BioAssay AID2792 (Sanford-Burnham Center for Chemical Genomics, 2010)
Active and inactive are the calls of the source. The rule behind the calls is not given here.

System: NF-kappaB luciferase reporter cells, PMA/ionomycin induced
Test: NF-kB luciferase suppression after PMA/ionomycin – cell-based, PMA/ionomycin inducer, set 2, SAR follow-up (AID 2792)

IC50, inactive:
COCCn1c(SCCCc2ccccc2)nc2c1c(=O)[nH]c(=O)n2C > 25 µM, CCCCn1c(SCC(=O)Nc2nnc(CC)s2)nc2c1c(=O)n(C)c(=O)n2C > 25 µM, C/C=C/Cn1c(SCCCc2ccccc2)nc2c1c(=O)[nH]c(=O)n2C > 25 µM, CCCn1c(SCCc2ccccc2)nc2c1c(=O)[nH]c(=O)n2C > 25 µM, C/C=C/Cn1c(SCc2ccccc2)nc2c1c(=O)[nH]c(=O)n2C > 25 µM, C/C(Cl)=C\Cn1c(NCCc2ccccc2)nc2c1c(=O)n(C)c(=O)n2C > 25 µM, Cn1c(=O)[nH]c(=O)c2c1nc([N+](=O)[O-])n2Cc1ccccc1 > 25 µM, CC(C)Sc1nc2c(c(=O)[nH]c(=O)n2C)n1Cc1ccccc1 > 25 µM, CC(C)n1c(SCCCc2ccccc2)nc2c1c(=O)[nH]c(=O)n2C > 25 µM, C/C=C/Cn1c(SCc2ccc(Cl)cc2)nc2c1c(=O)[nH]c(=O)n2C > 25 µM, CCCCCn1c(SCCc2ccccc2)nc2c1c(=O)[nH]c(=O)n2C > 25 µM, C=CCn1c(SCCCc2ccccc2)nc2c1c(=O)[nH]c(=O)n2C > 25 µM, Nc1nc2ccccc2n1CCOc1ccc(Cl)cc1 > 25 µM, CCCCn1c(SCC(=O)c2ccccc2)nc2c1c(=O)[nH]c(=O)n2C > 25 µM
